In patent US11254640B2, “N-substituted indoles and other heterocycles for treating brain disorders” (The Regents of the University of California, priority 2019, dated 2022):

Experiments:
5HT2A sensor [1] = assay: 5HT2A sensor assay, agonist mode (sLight1.3s HEK293T stable line); format: cell-based; settings: for activation of 5HT2A sensor assay in agonist mode at 10 μM: 10 μM of compound (FIG. 11); for activation of 5HT2A sensor assay in agonist mode (dose response): dose response (FIG. 10)
Outline: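 Fluorescence change, dFF=(Fsat−Fapo)/Fapo, was taken from membrane images (460 nm excitation) before and after compound addition and scaled as % activation, with the DMSO mean as 0 and the 5HT mean as 100. The cells were sLight1.3s HEK293T in HBSS. Final compound levels were 100 μM, 10 μM and 100 nM in 0.1% DMSO, in triplicate.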

cortical neurons [2] = assay: Dendritogenesis assay, Sholl analysis; format: cell-based, rat; settings: Rattus norvegicus, Cortical neurone; 10 μM; Nmax with vehicle (DMSO) = 0% and ketamine = 100%; read-out: % efficacy in sholls
Text: Dendritogenesis Assays. Phenotypic screening has historically proven more successful than target-based approaches for identifying drugs with novel mechanisms of action. Having established a simple and robust method for accessing isoDMT analogs, tested next was their ability to increase dendritic arbor complexity in cultures of cortical neurons using a phenotypic assay. Following treatment, neurons were fixed and visualized using an antibody against MAP2—a cytoskeletal protein localized to the somatodendritic compartment of neurons. Sholl analysis was then performed, and the maximum number of crossings (Nmax) was used as a quantitative metric of dendritic arbor complexity. For statistical comparisons between specific compounds, the raw Nmax values were compared. Percent efficacies were determined by setting the Nmax values for the vehicle (DMSO) and positive (ketamine) controls equal to 0% and 100%, respectively.
(§1) Animals. For the dendritogenesis experiments, timed pregnant Sprague Dawley rats were obtained from Charles River Laboratories (Wilmington, Mass.). For the head-twitch response assay, male and female C57BL/6J mice were obtained from Jackson Laboratory (Sacramento, Calif.). Mice were housed in a temperature and humidity-controlled room maintained on a 12-h light/dark cycle in groups of 4-5 (same sex). Animals weighed between 17 and 30 g at the time of the experiments. All experimental procedures involving rodents were approved by the UC Davis Institutional Animal Care and Use Committee (IACUC) and adhered to principles described in the National Institutes of Health Guide for the Care and Use of Laboratory Animals. The University of California, Davis and the University of California, San Francisco are accredited by the Association for Assessment and Accreditation of Laboratory Animal Care International (AAALAC).
Dendritogenesis—Sholl Analysis. Dendritogenesis experiments were performed following a previously published method with slight modifications. Neurons were plated in 96-well format (200 μL of media per well) at a density of approximately 15,000 cells/well in Neurobasal (Life Technologies) containing 1% penicillin-streptomycin, 10% heat-inactivated fetal bovine serum, and 0.5 mM glutamine. After 24 h, the medium was replaced with Neurobasal containing 1× B27 supplement (Life Technologies), 1% penicillin-streptomycin, 0.5 mM glutamine, and 12.5 μM glutamate. After 3 days in vitro (DIV3), the cells were treated with compounds. All compounds tested in the dendritogenesis assays were treated at 10 μM unless noted otherwise. Stock solutions of the compounds in DMSO were first diluted 100-fold in Neurobasal before an additional 10-fold dilution into each well (total dilution=1:1000; 0.1% DMSO concentration). Treatments were randomized. After 1 h, the media was removed and replaced with new Neurobasal media containing 1× B27 supplement, 1% penicillin-streptomycin, 0.5 mM glutamine, and 12.5 μM glutamate. The cells were allowed to grow for an additional 71 h. At that time, neurons were fixed by removing 80% of the media and replacing it with a volume of 4% aqueous paraformaldehyde (Alfa Aesar) equal to 50% of the working volume of the well. Then, the cells were incubated at room temperature for 20 min before the fixative was aspirated and each well washed twice with DPBS. Cells were permeabilized using 0.2% Triton X-100 (ThermoFisher) in DPBS for 20 minutes at room temperature without shaking. Plates were blocked with antibody diluting buffer (ADB) containing 2% bovine serum albumin (BSA) in DPBS for 1 h at room temperature. Then, plates were incubated overnight at 4° C. with gentle shaking in ADB containing a chicken anti-MAP2 antibody (1:10,000; EnCor, CPCA-MAP2). The next day, plates were washed three times with DPBS and once with 2% ADB in DPBS. […]

cortical neurons [3] = assay: Ketanserin blocking experiments (dendritogenesis); format: cell-based, rat; settings: ketanserin 10 μM, drug 1 μM (FIG. 7)
Experimental: Ketanserin Blocking Experiments. For the ketaserin blocking experiments (FIG. 7), a slightly modified method was employed. On DIV 3, neurons were first treated with ketanserin (10 μM) for 1 h followed by a 1 h incubation with drug (1 μM) and ketanserin (10 μM) (final concentration of DMSO=0.2%). After 1 h, the media was removed and replaced with new Neurobasal media containing 1× B27 supplement, 1% penicillin-streptomycin, 0.5 mM glutamine, and 12.5 μM glutamate. The cells were allowed to grow for an additional 71 h before being fixed, stained, and imaged.

C57BL/6J mice = assay: Head twitch response (HTR) assay; format: in vivo, mouse; settings: intraperitoneal injection, head-twitches over 20 mins (FIG. 8, FIG. 9)
Text: as §1
Head twitch response experiments. Mice (9-10 weeks old) were injected intraperitoneally with compound (injection volume 5 ml/kg), placed in an empty cage, and filmed for 20 minutes. Cages were cleaned with 70% ethanol between experiments.

rats = rats trained to discriminate DOM from saline; cited from earlier work
5HT2A sensor [4] = assay: 5HT2A sensor assay, antagonist mode (sLight1.3s HEK293T stable line); format: cell-based; settings: dose response (FIG. 12A, FIG. 12B)
Outline: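 Inactivation score is computed from membrane dFF as (dFF(compound+5HT)−dFF(5HT))/dFF(5HT), with HBSS-only fluorescence as Fapo. Final concentrations: 5-HT 100 nM added first, then compound at 100 nM, 10 μM or 100 μM in 0.1% DMSO. Triplicates; FITC imaging, 5 fields per well.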

C57/BL6J mice = assay: Forced swim test (FST); format: in vivo, mouse; settings: 24 h after drug administration; i.p., compounds 20 mg/kg, ketamine 3 mg/kg
Experimental: Forced Swim Test. As increased cortical structural plasticity in the anterior parts of the brain mediates the sustained (>24 h) antidepressant-like effects of ketamine and play a role in the therapeutic effects of 5-HT2A agonists, the impact of IsoDMT analogs on forced swim test (FST) behavior (FIG. 14A and FIG. 14B) was evaluated. First, a pretest was used to induce a depressive phenotype. Compounds were administered 24 h after the pre-test, and the FST was performed 24 h and 7 d post drug administration.
Forced Swim Test (FST). Male C57/BL6J mice (9-10 weeks old at time of experiment) were obtained from the Jackson Lab and housed 4-5 mice/cage in a UCD vivarium following an IACUC approved protocol. After 1 week in the vivarium each mouse was handled for approximately 1 minute by a experimenter for 3 consecutive days leading up to the first FST. […] Immobility scores for all mice were determined after the pre-test and mice were randomly assigned to treatment groups to generate groups with similar average immobility scores to be used for the following two FST sessions. […] Experiments were video-recorded and manually scored offline. Immobility time—defined as passive floating or remaining motionless with no activity other than that needed to keep the mouse's head above water—was scored for the last 4 min of the 6 min trial.

Row | SMILES | activation of 5HT2A sensor assay in agonist mode at 10 μM (5HT2A sensor [1]) | activation of 5HT2A sensor assay in agonist mode (dose response) (5HT2A sensor [1]) | Emax at 10 µM (cortical neurons [2]) [%] | effect of 5-HT2A antagonist pretreatment on increase in dendritic growth (cortical neurons [3]) | head-twitch response (hallucinogenic potential) (C57BL/6J mice) | substitution for hallucinogenic training drug (DOM) in drug discrimination (rats) | competition with 5-HT in 5HT2A sensor assay, antagonist mode (dose response) (5HT2A sensor [4]) | immobility in forced swim test (C57/BL6J mice)
1 | COc1ccc2[nH]cc(CCN(C)C)c2c1 [Example 28, 2-(5-methoxy-1H-indol-3-yl)-N,N-dimethylethan-1-amine, reference compound] | activate the 5HT2A sensor assay in agonist mode | activate | 80 | blocked | robust, dose-dependent HTR | substitutes |  | 
2 | COc1ccc2c(CCN(C)C)c[nH]c2c1 [Example 30, 2-(6-methoxy-1H-indol-3-yl)-N,N-dimethylethan-1-amine, reference compound] | do not activate the 5HT2A sensor assay in agonist mode | do not | 72 |  | did not produce a HTR | does not | compete off 5-HT | 
3 | CNC1(c2ccccc2Cl)CCCCC1=O (stereo not shown) [ketamine, reference compound] |  |  |  |  |  |  |  | significantly reduced immobility
